Tests used:
Format in all cases: biochemical
[1] = target: T1, Lck kinase purified from bovine thymus (Bos taurus, UniProt Q3ZCM0); test: Lck inhibition assay (33P incorporation into poly Glu-Tyr); conditions: for Ki: 10 μM ATP, read-out: Activity in the Lck Inhibition Assay (Ki rating A-C)
T1 construct: Lck kinase purified from bovine thymus; purchased Upstate Biotechnology 14-106; host or cells: bovine thymus (tissue-purified)
How it was run: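 Filter-binding radiometric assay of 33P transfer from ATP to poly Glu-Tyr (4:1, 5 mg/ml) by bovine thymus Lck in 0.05 M HEPES pH 7.6, 10 mM MgCl2, 2 mM DTT, 0.25 mg/ml BSA, 10 μM ATP. After 10 min at 30° C, reaction started with 33P-ATP, run 20 min, quenched with TCA; filter-bound radioactivity counted by scintillation.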

[2] = target: Glycogen Synthase Kinase 3 (GSK-3) (Homo sapiens, UniProt P49841); test: GSK-3 inhibition assay (standard coupled enzyme assay); conditions: 60 nM GSK-3, 10 μM ATP; read-out: GSK-3 Inhibitory Activity (Ki rating A-C)
Method: Compounds were screened in the following manner for their ability to inhibit Glycogen Synthase Kinase 3 (GSK-3) using a standard coupled enzyme assay (Fox et al (1998) Protein Sci 7, 2249). To an assay stock buffer solution containing 0.1M HEPES 7.5, 10 mM MgCl2, 25 mM NaCl, 2.5 mM phosphoenolpyruvate, 300 μM NADH, 1 mM DTT, 30 μg/mL pyruvate kinase, 10 μg/mL lactate dehydrogenase, 300 μM peptide (HSSPHQp-SEDEEE, American Peptide, Sunnyvale, Calif.), and 60 nM GSK-3, was added a 30 μM solution of the compound in DMSO and the resulting mixture incubated at 30° C. for 5 min. The reaction was initiated by the addition of 10 μM ATP. The rates of reaction were obtained by monitoring absorbance at 340 nm over a 5 minute read time at 30° C. using a Molecular Devices plate reader (Sunnyvale, Calif.). The IC50 was determined from the rate data as a function of inhibitor concentration.

activated JNK3 = target: T2, activated JNK3 (Homo sapiens, UniProt P53779); test: JNK inhibition assay (spectrophotometric coupled-enzyme assay); conditions: for Ki: 10 nM activated JNK3, 10 μM ATP, read-out: Activity in the JNK3 Inhibition Assay (Ki rating A-C)
T2 construct: One such construct encodes amino acid residues Ser40-Glu402 of JNK3α1 and is preceded by Met and Gly residues; Met-Gly (initiator methionine and added glycine) (N); made in house; host or cells: E. coli BL21 (DE3)
How it was run: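 Activated (doubly phosphorylated, MKK7(DD)-activated) human JNK3, 10 nM, preincubated 10 min at 30 °C with inhibitor in 0.1 M HEPES pH 7.5, 10 mM MgCl2, 200 μM EGF receptor peptide, PK/LDH-coupled. Started with 10 μM ATP; A340 decrease followed at 30 °C. Ki from competitive inhibition model fit.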

CDK-2/Cyclin A = CDK-2/Cyclin A (Homo sapiens, UniProt P24941); test: CDK2 inhibition assay (standard coupled enzyme assay); conditions: 25 nM CDK-2/Cyclin A; read-out: CDK2 Inhibitory Activity (Ki rating A-C)
How it was run: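 Pyruvate kinase/lactate dehydrogenase-coupled assay in pH 7.5 HEPES with 100 μM peptide substrate and ATP […]; compound (30 μM final) preincubated 10 min at 30° C before adding CDK-2/Cyclin A to 25 nM.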

[3] = target: T3, full length recombinant human Src kinase (Homo sapiens, UniProt P12931); test: Src inhibition assay (33P incorporation into poly Glu-Tyr); conditions: for Ki: 10 μM ATP, read-out: Activity in the SRC Inhibition Assay (Ki rating A-C); for inhibition at 2 µM: at a 2 μM inhibitor concentration, read-out: Activity in the SRC Inhibition Assay (percent inhibition rating D-F)
T3 construct: full length recombinant human Src kinase; purchased Upstate Biotechnology 14-117; host or cells: baculo viral cells (baculovirus expression)
Method: The compounds were assayed as inhibitors of full length recombinant human Src kinase (from Upstate Biotechnology, cat. no. 14-117) expressed and purified from baculo viral cells. Src kinase activity was monitored by following the incorporation of ^33P from ATP into the tyrosine of a random poly Glu-Tyr polymer substrate of composition, Glu:Tyr=4:1 (Sigma, cat. no. P-0275). The following were the final concentrations of the assay components: 0.05 M HEPES, pH 7.6, 10 mM MgCl2, 2 mM DTT, 0.25 mg/ml BSA, 10 μM ATP (1-2 μCi ^33P-ATP per reaction), 5 mg/ml poly Glu-Tyr, and 1-2 units of recombinant human Src kinase. In a typical assay, all the reaction components with the exception of ATP were pre-mixed and aliquoted into assay plate wells. […] The assay plate was incubated at 30° C. for 10 min before initiating the reaction with ^33P-ATP. After 20 min of reaction, the reactions were quenched with 150 μl of 10% trichloroacetic acid (TCA) containing 20 mM Na3PO4. The quenched samples were then transferred to a 96-well filter plate (Whatman, UNI-Filter GF/F Glass Fiber Filter, cat no. 7700-3310) installed on a filter plate vacuum manifold. Filter plates were washed four times with 10% TCA containing 20 mM Na3PO4 and then 4 times with methanol. 200 μl of scintillation fluid was then added to each well. The plates were sealed and the amount of radioactivity associated with the filters was quantified on a TopCount scintillation counter.

T1 sequence (Q3ZCM0 1-509): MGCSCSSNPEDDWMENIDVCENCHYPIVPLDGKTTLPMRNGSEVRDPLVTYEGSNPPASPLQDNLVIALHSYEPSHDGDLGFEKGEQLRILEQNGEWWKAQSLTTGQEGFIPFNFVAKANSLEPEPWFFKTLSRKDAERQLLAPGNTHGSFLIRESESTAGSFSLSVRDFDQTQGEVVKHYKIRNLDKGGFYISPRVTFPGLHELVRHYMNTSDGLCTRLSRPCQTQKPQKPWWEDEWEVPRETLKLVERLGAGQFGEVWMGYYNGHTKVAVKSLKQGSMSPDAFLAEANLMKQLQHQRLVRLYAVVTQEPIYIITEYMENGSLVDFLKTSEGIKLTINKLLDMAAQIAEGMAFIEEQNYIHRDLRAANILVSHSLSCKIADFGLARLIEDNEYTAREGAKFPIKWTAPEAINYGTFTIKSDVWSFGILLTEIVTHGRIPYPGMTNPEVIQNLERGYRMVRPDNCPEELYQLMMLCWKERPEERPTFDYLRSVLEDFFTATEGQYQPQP
Sequence of Glycogen Synthase Kinase 3 (GSK-3) (P49841 whole entry): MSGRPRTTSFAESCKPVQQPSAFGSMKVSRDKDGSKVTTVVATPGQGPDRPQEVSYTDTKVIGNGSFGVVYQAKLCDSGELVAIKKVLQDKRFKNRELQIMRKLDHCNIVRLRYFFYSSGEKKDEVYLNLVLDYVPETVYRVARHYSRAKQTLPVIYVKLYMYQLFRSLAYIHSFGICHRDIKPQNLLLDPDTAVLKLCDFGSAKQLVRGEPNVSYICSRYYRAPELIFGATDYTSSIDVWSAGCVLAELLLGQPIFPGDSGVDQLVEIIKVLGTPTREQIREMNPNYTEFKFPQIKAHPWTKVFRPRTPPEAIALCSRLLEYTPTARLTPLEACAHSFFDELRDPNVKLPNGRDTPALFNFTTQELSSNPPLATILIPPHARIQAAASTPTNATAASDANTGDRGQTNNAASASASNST
T2 sequence (P53779 40-402): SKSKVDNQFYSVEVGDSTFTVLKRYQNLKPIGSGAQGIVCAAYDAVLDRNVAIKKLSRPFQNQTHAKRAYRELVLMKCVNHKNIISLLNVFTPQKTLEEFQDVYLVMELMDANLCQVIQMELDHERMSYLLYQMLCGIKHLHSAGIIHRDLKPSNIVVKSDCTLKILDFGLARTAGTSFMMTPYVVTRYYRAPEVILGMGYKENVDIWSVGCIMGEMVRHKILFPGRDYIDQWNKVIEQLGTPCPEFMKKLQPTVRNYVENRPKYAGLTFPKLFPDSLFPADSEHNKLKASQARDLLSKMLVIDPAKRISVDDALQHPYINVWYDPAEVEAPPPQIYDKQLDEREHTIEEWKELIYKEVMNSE
T3 sequence (P12931 whole entry): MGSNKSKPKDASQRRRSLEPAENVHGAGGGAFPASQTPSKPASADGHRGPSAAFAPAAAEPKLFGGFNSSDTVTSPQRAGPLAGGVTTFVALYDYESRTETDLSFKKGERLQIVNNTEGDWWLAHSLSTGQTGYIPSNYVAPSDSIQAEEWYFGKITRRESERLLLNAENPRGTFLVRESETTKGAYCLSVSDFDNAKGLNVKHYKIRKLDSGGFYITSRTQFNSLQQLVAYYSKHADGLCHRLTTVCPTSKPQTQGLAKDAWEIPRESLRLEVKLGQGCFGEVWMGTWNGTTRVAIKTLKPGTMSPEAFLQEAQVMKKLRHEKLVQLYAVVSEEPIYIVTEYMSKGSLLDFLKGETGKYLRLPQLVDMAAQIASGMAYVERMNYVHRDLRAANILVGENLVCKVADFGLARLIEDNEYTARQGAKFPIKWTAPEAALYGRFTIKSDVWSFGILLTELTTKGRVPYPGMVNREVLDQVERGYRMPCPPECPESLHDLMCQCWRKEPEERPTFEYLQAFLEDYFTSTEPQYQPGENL

| SMILES | Ki [2] | Ki (activated JNK3) | Ki (CDK-2/Cyclin A) | Ki [3] | inhibition at 2 µM [3] | other results |
| --- | --- | --- | --- | --- | --- | --- |
| COc1cc(-c2ccnc(Nc3ccc(S(N)(=O)=O)cc3)n2)cc(OC)c1OC [Compound I-66] | < 100 nM | < 100 nM | < 2000 nM |  |  | Activity in the Lck Inhibition Assay (percent inhibition rating D-F) ([1]; at a 5 μM inhibitor concentration): E (percent inhibition of between 24% and 66%) |
| COc1cc(-c2ccnc(Nc3cccc(O)c3)n2)cc(OC)c1OC [Compound I-58] |  | < 100 nM |  |  | 24 to 66% |  |
| COc1cc(-c2ccnc(Nc3ccc(Cl)cc3)n2)cc(OC)c1OC [Compound I-1] | > 1000 nM | 100 to 1000 nM | > 5000 nM | > 1000 nM |  |  |
| COc1cc(-c2ccnc(Nc3ccc4c(c3)OCO4)n2)cc(OC)c1OC [Compound I-63] |  | < 100 nM |  |  | 24 to 66% |  |
| COc1cc(-c2ccnc(Nc3ccc(Cl)cc3)n2)cc2c1OCCO2 [Compound I-76] |  | < 100 nM |  |  | 24 to 66% |  |
| COc1cc(-c2ccnc(Nc3ccc(Cl)nc3)n2)cc(OC)c1OC [Compound I-61] |  | < 100 nM | > 5000 nM |  | < 33% |  |
| COc1cc(-c2ccnc(Nc3cccc(F)c3F)n2)cc(OC)c1OC [Compound I-13] |  | < 100 nM | > 5000 nM |  | 24 to 66% |  |
| CCOc1c(OC)cc(-c2ccnc(Nc3cccc(OC)c3)n2)cc1OC [Compound I-50] |  | < 100 nM |  |  | 67 to 100% |  |
| COc1cc(Nc2nccc(-c3cc(OC)c(OC)c(OC)c3)n2)cc(OC)c1 [Compound I-12] | 100 to 1000 nM | < 100 nM | > 5000 nM |  | < 33% |  |
| COc1cc(-c2ccnc(Nc3cccc(Cl)c3)n2)cc2c1OCCO2 [Compound I-75] | < 100 nM | < 100 nM |  |  | 67 to 100% |  |
| COc1cc(-c2ccnc(Nc3ccc(Cl)nc3)n2)cc(OC)c1O [Compound I-73] |  | < 100 nM |  |  | 24 to 66% |  |
| COc1c(Br)cc(-c2ccnc(Nc3cccc(F)c3)n2)cc1Br [Compound I-48] | 100 to 1000 nM | 100 to 1000 nM |  |  | 24 to 66% |  |
| COc1cc(-c2ccnc(Nc3cccc(Br)c3)n2)cc(OC)c1OC [Compound I-59] | < 100 nM | < 100 nM | > 5000 nM |  | 67 to 100% |  |
| COc1cc(-c2ccnc(Nc3ccc(F)cc3)n2)cc(OC)c1OC [Compound I-3] |  | < 100 nM | > 5000 nM |  | < 33% | Ki [1]: > 1000 nM |
| COc1cc(-c2ccnc(Nc3ccccc3)n2)cc2c1OCCO2 [Compound I-74] |  | < 100 nM |  |  | 24 to 66% |  |
| COc1cc(-c2ccnc(Nc3cccc(C)c3)n2)cc2c1OCCO2 [Compound I-81] |  | < 100 nM |  |  | 67 to 100% |  |
| COc1ccc(Nc2nccc(-c3cc(OC)c(OC)c(OC)c3)n2)cc1OC [Compound I-64] | 100 to 1000 nM |  |  |  | 67 to 100% | Activity in the JNK3 Inhibition Assay (percent inhibition rating D-F) (activated JNK3; at a 2 μM inhibitor concentration): F (percent inhibition of between 67% and 100%) |
| COc1cc(-c2ccnc(Nc3ccc(F)cc3)n2)cc2c1OCCO2 [Compound I-80] |  | < 100 nM |  |  | 24 to 66% |  |
| COc1cc(-c2ccnc(Nc3ccc(C)cc3)n2)cc2c1OCCO2 [Compound I-82] |  | < 100 nM |  |  | < 33% |  |
| COc1cc(-c2ccnc(Nc3ccc4ccccc4c3)n2)cc(OC)c1OC [Compound I-62] | 100 to 1000 nM | < 100 nM |  |  | < 33% |  |
| COc1cc(-c2ccnc(Nc3cccc(F)c3)n2)cc(OC)c1OC [Compound I-60] |  | < 100 nM | > 5000 nM |  | 67 to 100% |  |
| COc1cc(-c2ccnc(Nc3cccc(F)c3)n2)cc2c1OCCO2 [Compound I-79] |  | < 100 nM |  |  | 24 to 66% |  |
| COc1cc(-c2ccnc(NC3CCCCC3)n2)cc(OC)c1OC [Compound I-4] | > 1000 nM | 100 to 1000 nM | > 5000 nM | > 1000 nM |  |  |
| COc1ccc(Nc2nccc(-c3cc(OC)c4c(c3)OCCO4)n2)cc1 [Compound I-78] |  | < 100 nM |  |  | 24 to 66% |  |

More lines, main results first:

| Ki [2] | Ki (activated JNK3) | Ki (CDK-2/Cyclin A) | Ki [3] | inhibition at 2 µM [3] | SMILES | other results |
| --- | --- | --- | --- | --- | --- | --- |
| > 1000 nM |  |  | 100 to 1000 nM |  | COc1ccc(-c2cccc(Cl)c2)cc1Nc1nccc(-c2ccc(OC)c(OC)c2OC)n1 [II-65] |  |
|  |  | > 5000 nM | 100 to 1000 nM |  | COc1ccc(-c2ccnc(Nc3cccc(-c4ccccc4C)c3)n2)c(OC)c1OC [II-62] | Ki [1]: > 1000 nM |
| > 1000 nM |  |  | < 100 nM |  | COc1ccc(-c2cccc(F)c2)cc1Nc1nccc(-c2ccc(OC)c(OC)c2OC)n1 [II-64] |  |
|  |  |  | < 100 nM |  | COc1ccc(-c2ccnc(Nc3cccc(S(=O)(=O)c4ccccc4)c3)n2)c(OC)c1OC [II-24] | Ki [1]: 100 to 1000 nM |
| < 100 nM |  |  | 100 to 1000 nM |  | COc1ccc(Nc2nccc(-c3ccc(OC)c(OC)c3OC)n2)cc1-c1ccc(Cl)cc1 [II-68] |  |
| > 1000 nM |  |  | > 1000 nM |  | COc1ccc(-c2ccnc(Nc3cc(-c4cccc(Cl)c4)ccc3F)n2)c(OC)c1OC [II-66] |  |
|  |  |  | < 100 nM |  | COc1ccc(-c2ccnc(Nc3cccc(-c4ccc(C)cc4)c3)n2)c(OC)c1OC [II-63] | Ki [1]: 100 to 1000 nM |
|  |  |  | < 100 nM |  | COc1ccc(-c2ccnc(Nc3cccc(Oc4ccccc4)c3)n2)c(OC)c1OC [II-1] | Ki [1]: < 100 nM |
| < 100 nM |  | > 5000 nM |  |  | COc1ccc(Oc2cc(Nc3nccc(-c4ccc(OC)c(OC)c4OC)n3)ccc2OC)cc1 [II-73] | Ki [1]: < 100 nM |
| > 1000 nM |  | > 5000 nM |  |  | COc1ccc(-c2ccc(C)c(Nc3nccc(-c4ccc(OC)c(OC)c4OC)n3)c2)cc1 [II-44] | Ki [1]: 100 to 1000 nM |
| < 100 nM |  |  | < 100 nM |  | COc1ccc(Nc2nccc(-c3ccc(OC)c(OC)c3OC)n2)cc1-c1cccc(F)c1 [II-69] |  |
| < 100 nM |  | > 5000 nM |  |  | COc1cccc(Oc2cc(Nc3nccc(-c4ccc(OC)c(OC)c4OC)n3)ccc2OC)c1 [II-75] | Ki [1]: < 100 nM |
| < 100 nM |  | > 5000 nM |  |  | COc1ccc(Nc2nccc(-c3ccc(OC)c(OC)c3OC)n2)cc1Oc1cccc(Cl)c1 [II-74] | Ki [1]: < 100 nM |
| < 100 nM |  |  | < 100 nM |  | COc1ccc(Nc2nccc(-c3ccc(OC)c(OC)c3OC)n2)cc1-c1cccc(Cl)c1 [II-67] |  |

Reference: US6949544B2, “Inhibitors of c-Jun N-terminal kinases (JNK) and other protein kinases” (Vertex Pharmaceuticals Incorporated, priority 2001, dated 2005)
